Measurements from patent publication US20260274814A1, “THIENYL COMPOUNDS FOR THE TREATMENT OF A CENTRAL NERVOUS SYSTEM DISEASE OR DISORDER” (Coreterra Therapeutics, Inc., priority 2023, published 2026).
Where a name gives a salt, the structure may show the parent alone.

Tested on: mice
Experiment: Neuropharmacological Assay (SmartCube): automated behavioral signature of compound-treated mice compared with a database of reference drug classes
Assay type: in vivo
Details: for minimal effective dose: Mus musculus, ip, minimal effective dose: dose having 45% or more total activity in SmartCube, i.p., if only one dose was tested, that dose is shown, read-out: MED; for AD / AG / AN / AP / AX / CE / HL / MS / PS / SH / UK: SmartCube probability class, 3.0 mg/kg dose, i.p. 15 min before the behavioral test
In short: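 Probabilities reflect how closely the digitally recorded behavioural signature at 3.0 mg/kg i.p. matched each reference class (antipsychotic, anxiolytic, antidepressant etc.). Dosing occurred 15 min before testing. Minimal effective dose was the dose giving 45% or more total activity.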

For `CNC1COc2scc(C)c2C1` (stereo not drawn) [Compound 308, N, 5-dimethyl-3,4-dihydro-2H-thieno[2,3-b]pyran-3-amine hydrochloride], the minimal effective dose was under 3 mg/kg, the AD was “ND (^ <4%)” and the AG was “ND (^ <4%)”. For the same compound, the AN was “ND (^ <4%)”, the AP was “++++ (≥74%)” and the AX was “ND (^ <4%)”. The CE was “ND (^ <4%)”, the HL was “ND (^ <4%)” and the MS was “ND (^ <4%)”. The PS was “ND (^ <4%)”, the SH was “ND (^ <4%)” and the UK was “ND (^ <4%)”.

In the case of `NC1Cc2ccsc2C1` (stereo not drawn) [Compound 311, 5,6-dihydro-4H-cyclopenta[b]thiophen-5-amine hydrochloride], the minimal effective dose is reported as 3 mg/kg, the AD is reported as “++ (≥24%)” and the AG is reported as “ND (^ <4%)”. The AN was “ND (^ <4%)”, the AP was “ND (^ <4%)” and the AX was “ND (^ <4%)”. The CE was “ND (^ <4%)”, the HL was “ND (^ <4%)” and the MS was “ND (^ <4%)”. The PS was “ND (^ <4%)”, the SH was “ND (^ <4%)” and the UK was “+++ (≥49%)”.

In the case of `CNC1COc2scc(C#N)c2C1` (stereo not drawn) [Compound 322, 3-(methylamino)-3,4-dihydro-2H-thieno[2,3-b]pyran-5-carbonitrile hydrochloride], the minimal effective dose is reported as 3 mg/kg, the AD is reported as “ND (^ <4%)” and the AG is reported as “ND (^ <4%)”. The AN was “ND (^ <4%)”, the AP was “+++ (≥49%)” and the AX was “ND (^ <4%)”. The CE was “ND (^ <4%)”, the HL was “ND (^ <4%)” and the MS was “ND (^ <4%)”. The PS was “ND (^ <4%)”, the SH was “ND (^ <4%)” and the UK was “++ (≥24%)”.

With `NC1CCCc2ccsc2C1` (stereo not drawn) [Compound 323, 5,6,7,8-tetrahydro-4H-cyclohepta[b]thiophen-7-amine hydrochloride] the minimal effective dose was 3 mg/kg, the AD was “++ (≥24%)” and the AG was “ND (^ <4%)”. The AN was “ND (^ <4%)”, the AP was “++ (≥24%)” and the AX was “+ (≥4%)”. The CE was “ND (^ <4%)”, the HL was “ND (^ <4%)” and the MS was “ND (^ <4%)”. For the same compound, the PS was “ND (^ <4%)”, the SH was “ND (^ <4%)” and the UK was “+ (≥4%)”.

For `CNC1CCCc2sccc2C1` (stereo not drawn) [Compound 326, N-methyl-5,6,7,8-tetrahydro-4H-cyclohepta[b]thiophen-5-amine hydrochloride], the minimal effective dose was 3 mg/kg, the AD was “ND (^ <4%)” and the AG was “ND (^ <4%)”. The AN was “ND (^ <4%)”, the AP was “ND (^ <4%)” and the AX was “++ (≥24%)”. The CE was “ND (^ <4%)”, the HL was “ND (^ <4%)” and the MS was “ND (^ <4%)”. The PS was “ND (^ <4%)”, the SH was “ND (^ <4%)” and the UK was “++ (≥24%)”.

With `CNC1CCc2ccsc2CC1` (stereo not drawn) [Compound 327, N-methyl-5,6,7,8-tetrahydro-4H-cyclohepta[b]thiophen-6-amine hydrochloride] the minimal effective dose was 3 mg/kg, the AD was “ND (^ <4%)” and the AG was “ND (^ <4%)”. The AN was “ND (^ <4%)”, the AP was “ND (^ <4%)” and the AX was “++ (≥24%)”. For the same compound, the CE was “ND (^ <4%)”, the HL was “ND (^ <4%)” and the MS was “ND (^ <4%)”. For the same compound, the PS was “ND (^ <4%)”, the SH was “ND (^ <4%)” and the UK was “+++ (≥49%)”.

For `CNC1(C)Cc2ccsc2C1` (stereo not drawn) [Compound 328, N, 5-dimethyl-5,6-dihydro-4H-cyclopenta[b]thiophen-5-amine hydrochloride], the minimal effective dose was 3 mg/kg, the AD was “++ (≥24%)” and the AG was “ND (^ <4%)”. The AN was “ND (^ <4%)”, the AP was “ND (^ <4%)” and the AX was “+ (≥4%)”. The CE was “ND (^ <4%)”, the HL was “+ (≥4%)” and the MS was “ND (^ <4%)”. The PS was “++ (≥24%)”, the SH was “ND (^ <4%)” and the UK was “+ (≥4%)”.
